In ChEMBL document CHEMBL5518240 (J Med Chem, 2024):
The source made the active and inactive calls. No cut-off for these calls is given here.

Experiments:
[1] = biological target: T1, Protein cereblon/Histone acetyltransferase p300 (Homo sapiens, UniProt Q09472+Q96SW2); assay: PROTAC activity at p300/CRBN in AR positive human VCaP cells assessed as maximal protein degradation at 0.15 nM incubated for 4 hrs by Western blot analysis relative to control; format: cell-based
[2] = biological target: T2, Protein cereblon/CREB-binding protein (Homo sapiens, UniProt Q92793+Q96SW2); assay: In vivo PROTAC activity at p300/CRBN in human VCaP cells xenografted in CB17 SCID mouse assessed as reduction in CBP protein at 1 mg/kg, po measured after 3 hrs; format: functional, organism-based; set-up: scale not given: the % may be the effect or the level left
[3] = system: CWR22R; assay: Potency index, ratio of ARV-110 IC50 to test compound IC50 for antiproliferative activity against AR positive human 22Rv1 cells assessed inhibition of cell growth measured after 4 days by CellTiter-Glo Luminescent cell viability assay; format: functional; conditions: time 4 day
[4] = biological target: T1, Protein cereblon/Histone acetyltransferase p300; assay: PROTAC activity at p300/CRBN in AR positive human VCaP cells assessed as maximal protein degradation at 1.4 nM incubated for 4 hrs by Western blot analysis relative to control; format: cell-based
[5] = Drug exposure in CB17 SCID mouse xenografted with human VCaP cells assessed compound concentration in tumor at 1 mg/kg, po measured after 3 hrs by LC-MS/MS analysis; format: ADME, organism-based, Neoplasm; conditions: read-out: Drug uptake
[6] = biological target: T1, Protein cereblon/Histone acetyltransferase p300; assay: PROTAC activity at p300/CRBN in AR positive human VCaP cells assessed as maximal protein degradation at 37 nM incubated for 4 hrs by Western blot analysis relative to control; format: cell-based
[7] = Drug exposure in CB17 SCID mouse xenografted with human VCaP cells assessed compound concentration in tumor at 3 mg/kg, po measured after 24 hrs by LC-MS/MS analysis; format: ADME, organism-based, Neoplasm; conditions: in vivo, BLD = below limit of detection
[8] = Reduction in KLK3 gene expression in AR positive human 22Rv1 cells assessed as reduction in mRNA level at 10 nM measured after 6 hrs by qRT-PCT analysis relative to control; format: functional, CWR22R
[9] = Drug exposure in CB17 SCID mouse xenografted with human VCaP cells assessed compound concentration in tumor at 3 mg/kg, po measured after 3 hrs by LC-MS/MS analysis; format: ADME, organism-based, Neoplasm; conditions: read-out: Drug uptake
[10] = biological target: T2, Protein cereblon/CREB-binding protein; assay: PROTAC activity at CBP/CRBN in human LNCaP cells assessed as maximal protein degradation at 1 uM incubated for 4 hrs by Western blot analysis relative to control; format: cell-based
[11] = biological target: T2, Protein cereblon/CREB-binding protein; assay: PROTAC activity at CBP/CRBN in AR positive human VCaP cells assessed as maximal protein degradation at 1000 nM incubated for 4 hrs by Western blot analysis relative to control; format: cell-based
[12] = biological target: T1, Protein cereblon/Histone acetyltransferase p300; assay: PROTAC activity at p300/CRBN in AR positive human VCaP cells assessed as maximal protein degradation at 333 nM incubated for 4 hrs by Western blot analysis relative to control; format: cell-based
[13] = Apparent permeability coefficient across apical to basolateral side in human Caco-2 cells at 10 uM incubated for 120 mins by LC-MS/MS analysis; format: ADME, cell-based; conditions: caco-2, 2 h
[14] = biological target: T2, Protein cereblon/CREB-binding protein; assay: PROTAC activity at CBP/CRBN in AR positive human VCaP cells assessed as maximal protein degradation at 0.15 nM incubated for 4 hrs by Western blot analysis relative to control; format: cell-based
[15] = biological target: T2, Protein cereblon/CREB-binding protein; assay: PROTAC activity at CBP/CRBN in AR positive human VCaP cells assessed as maximal protein degradation at 111.1 nM incubated for 4 hrs by Western blot analysis relative to control; format: cell-based
[16] = biological target: T2, Protein cereblon/CREB-binding protein; assay: In vivo PROTAC activity at p300/CRBN in human VCaP cells xenografted in CB17 SCID mouse assessed as reduction in CBP protein at 3 mg/kg, po measured after 3 hrs; format: functional, organism-based; set-up: scale not given: the % may be the effect or the level left
[17] = biological target: T2, Protein cereblon/CREB-binding protein; assay: PROTAC activity at CBP/CRBN in AR positive human VCaP cells assessed as maximal protein degradation at 1.4 nM incubated for 4 hrs by Western blot analysis relative to control; format: cell-based
[18] = biological target: T2, Protein cereblon/CREB-binding protein; assay: In vivo PROTAC activity at CBP/CRBN in human VCaP cells xenografted in SCID mouse assessed as reduction in CBP protein at 1 mg/kg, po measured after 3 hrs; format: functional, organism-based; set-up: scale not given: the % may be the effect or the level left
[19] = system: CWR22R; assay: Reduction in KLK3 gene expression in AR positive human 22Rv1 cells assessed as reduction in mRNA level measured after 6 hrs by qRT-PCT analysis relative to control; format: functional, cell-based; conditions: dose 0.1-1000 nM
[20] = system: CWR22R; assay: Effect on other proteins on global level in human 22Rv1 cells at 100 nM incubated for 4 hrs by multiplexed quantitative proteomics analysis relative to control; format: functional, cell-based
[21] = biological target: T1, Protein cereblon/Histone acetyltransferase p300; assay: PROTAC activity at p300/CRBN in AR positive human VCaP cells assessed as maximal protein degradation at 12.3 nM incubated for 4 hrs by Western blot analysis relative to control; format: cell-based
[22] = biological target: T1, Protein cereblon/Histone acetyltransferase p300; assay: PROTAC activity at p300/CRBN in AR positive human VCaP cells assessed as maximal protein degradation at 0.46 nM incubated for 4 hrs by Western blot analysis relative to control; format: cell-based
[23] = system: VCaP; assay: Potency index, ratio of ARV-110 IC50 to test compound IC50 for antiproliferative activity against AR positive human VCaP cells assessed inhibition of cell growth measured after 4 days by CellTiter-Glo Luminescent cell viability assay; format: functional; conditions: time 4 day

T2 sequence (Q92793 2-2442 limits assumed): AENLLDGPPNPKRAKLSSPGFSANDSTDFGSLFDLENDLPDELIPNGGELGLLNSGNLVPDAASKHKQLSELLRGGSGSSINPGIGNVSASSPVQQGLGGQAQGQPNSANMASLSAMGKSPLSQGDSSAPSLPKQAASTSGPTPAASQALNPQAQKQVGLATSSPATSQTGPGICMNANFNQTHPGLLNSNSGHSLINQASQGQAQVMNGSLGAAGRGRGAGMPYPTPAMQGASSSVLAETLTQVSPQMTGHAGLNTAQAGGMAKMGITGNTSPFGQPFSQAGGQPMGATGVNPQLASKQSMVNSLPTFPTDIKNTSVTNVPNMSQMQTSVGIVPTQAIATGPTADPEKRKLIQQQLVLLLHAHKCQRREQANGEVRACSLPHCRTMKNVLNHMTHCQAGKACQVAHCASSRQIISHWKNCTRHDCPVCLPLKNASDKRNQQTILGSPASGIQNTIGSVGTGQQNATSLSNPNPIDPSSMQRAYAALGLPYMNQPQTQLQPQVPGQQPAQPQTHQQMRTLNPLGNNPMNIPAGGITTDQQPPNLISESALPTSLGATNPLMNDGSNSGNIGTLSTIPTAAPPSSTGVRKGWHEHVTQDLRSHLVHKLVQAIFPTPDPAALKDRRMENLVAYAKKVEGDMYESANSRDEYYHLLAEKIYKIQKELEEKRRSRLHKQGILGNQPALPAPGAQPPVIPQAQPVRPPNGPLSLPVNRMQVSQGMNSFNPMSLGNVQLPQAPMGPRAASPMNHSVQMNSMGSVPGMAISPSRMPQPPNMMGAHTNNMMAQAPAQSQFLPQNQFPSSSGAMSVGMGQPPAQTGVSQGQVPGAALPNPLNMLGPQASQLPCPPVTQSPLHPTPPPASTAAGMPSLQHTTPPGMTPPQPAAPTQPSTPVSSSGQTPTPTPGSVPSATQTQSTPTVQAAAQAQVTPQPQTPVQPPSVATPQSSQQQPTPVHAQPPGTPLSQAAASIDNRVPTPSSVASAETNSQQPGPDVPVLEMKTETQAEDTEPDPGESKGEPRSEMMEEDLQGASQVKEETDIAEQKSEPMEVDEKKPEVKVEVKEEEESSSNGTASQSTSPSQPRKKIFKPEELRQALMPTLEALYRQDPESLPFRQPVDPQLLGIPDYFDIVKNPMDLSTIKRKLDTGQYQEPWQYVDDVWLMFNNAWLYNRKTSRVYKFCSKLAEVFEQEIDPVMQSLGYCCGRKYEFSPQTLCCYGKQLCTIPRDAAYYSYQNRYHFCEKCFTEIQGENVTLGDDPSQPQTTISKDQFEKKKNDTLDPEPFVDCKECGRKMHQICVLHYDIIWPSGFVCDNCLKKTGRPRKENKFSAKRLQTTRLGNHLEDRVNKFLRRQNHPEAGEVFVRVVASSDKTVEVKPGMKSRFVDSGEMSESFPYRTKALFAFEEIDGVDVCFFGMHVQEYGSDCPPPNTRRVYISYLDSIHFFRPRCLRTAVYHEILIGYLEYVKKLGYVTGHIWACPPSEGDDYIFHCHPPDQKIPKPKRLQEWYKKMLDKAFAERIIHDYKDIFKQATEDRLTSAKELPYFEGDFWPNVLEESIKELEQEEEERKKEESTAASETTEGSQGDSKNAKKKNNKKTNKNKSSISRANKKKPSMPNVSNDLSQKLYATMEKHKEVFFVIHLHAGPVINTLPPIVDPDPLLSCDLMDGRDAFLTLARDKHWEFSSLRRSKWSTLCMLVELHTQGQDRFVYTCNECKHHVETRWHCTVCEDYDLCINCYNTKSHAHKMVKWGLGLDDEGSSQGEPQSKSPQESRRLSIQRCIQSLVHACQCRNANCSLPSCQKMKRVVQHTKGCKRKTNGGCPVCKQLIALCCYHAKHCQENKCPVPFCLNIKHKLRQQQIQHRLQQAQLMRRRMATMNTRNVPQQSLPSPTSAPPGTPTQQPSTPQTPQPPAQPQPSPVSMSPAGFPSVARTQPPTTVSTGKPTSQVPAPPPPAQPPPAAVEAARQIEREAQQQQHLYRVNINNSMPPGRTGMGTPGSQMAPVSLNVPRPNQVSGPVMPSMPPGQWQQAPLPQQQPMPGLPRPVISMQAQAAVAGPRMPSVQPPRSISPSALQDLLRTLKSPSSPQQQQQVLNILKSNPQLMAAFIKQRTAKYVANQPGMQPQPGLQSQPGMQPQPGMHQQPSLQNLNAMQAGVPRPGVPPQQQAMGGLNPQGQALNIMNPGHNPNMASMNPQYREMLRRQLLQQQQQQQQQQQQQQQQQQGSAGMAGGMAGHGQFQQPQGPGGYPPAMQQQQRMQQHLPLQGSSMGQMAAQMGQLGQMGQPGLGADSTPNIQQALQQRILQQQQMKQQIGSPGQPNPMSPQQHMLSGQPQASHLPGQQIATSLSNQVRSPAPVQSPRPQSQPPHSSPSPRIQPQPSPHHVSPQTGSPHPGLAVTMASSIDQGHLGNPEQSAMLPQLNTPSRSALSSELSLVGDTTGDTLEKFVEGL
T2 sequence (Q96SW2 whole entry partner): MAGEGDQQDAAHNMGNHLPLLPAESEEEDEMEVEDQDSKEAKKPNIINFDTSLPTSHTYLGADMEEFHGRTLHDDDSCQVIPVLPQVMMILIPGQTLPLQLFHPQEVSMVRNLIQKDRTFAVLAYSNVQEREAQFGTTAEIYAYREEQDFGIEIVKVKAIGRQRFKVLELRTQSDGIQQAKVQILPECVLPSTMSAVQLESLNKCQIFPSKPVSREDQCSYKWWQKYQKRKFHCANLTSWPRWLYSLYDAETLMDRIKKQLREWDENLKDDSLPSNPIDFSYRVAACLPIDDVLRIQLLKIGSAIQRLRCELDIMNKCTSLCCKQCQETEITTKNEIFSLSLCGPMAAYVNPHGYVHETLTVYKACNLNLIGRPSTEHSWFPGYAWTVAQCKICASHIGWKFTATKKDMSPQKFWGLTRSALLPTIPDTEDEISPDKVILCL

Activity [1]: 50%
Activity [2]: > 95%
Activity [4]: 97%
concentration at 3 h [5]: 30 ng/mL
Activity [6]: 100%
Drug uptake [7]: Bld
concentration at 3 h [9]: 141 ng/mL
Emax [10]: 90%
Activity [11]: 51%
Activity [12]: 94%
Papp [13]: 2.8 10^-6 cm/s
Activity [14]: 15%
Activity [15]: 94%
Activity [16]: > 95%
Activity [17]: 91%
Activity [18]: > 95%
Activity [21]: 100%
Activity [22]: 80%
SMILES: CC(=O)N1CCc2c(c(N3CCCc4cc(-c5cnn(C)c5)c(C(F)F)cc43)nn2[C@H]2CC[C@H](CN3CCN(c4ccc5c(c4)C(=O)N(C4CCC(=O)NC4=O)C5=O)CC3)CC2)C1 (stereo partly drawn)
Ratio IC50 [3]: >50
inhibition at 0.01 µM [8]: 75%
inhibition [19]: Dose-Dependent Effect
Activity [20]: inactive
Ratio IC50 [23]: >50
